In patent US6525001B1, “Substituted pyrimidine and pyridine herbicides” (Mid-American Commercialization Corporation, priority 1997, dated 2003):

Experiments:
Assay type in all cases: in vivo
Design in all cases: key: 0 is no effect; 10 is complete control
[1] = test system: purple nutsedge (Cyperus rotundus); experiment: Test B pre-/postemergence
Description: (§1) Seeds of bedstraw (Galium aparine), blackgrass (Alopecurus myosuroides), broadleaf signalgrass (Brachiaria decumbens), cocklebur (Xanthium strumarium), corn (Zea mays), crabgrass (Digitaria sanguinalis), giant foxtail (Setaria faberii), lambsquarters (Chenopodium album), momingglory (Ipomoea hederacea), pigweed (Amaranthus retroflexus), rape (Brassica napus), soybean (Glycine max), sugar beet (Beta vulgaris), velvetleaf (Abutilon theophrasti), wheat (Triticum aestivum), wild oat (Avena fatua) and purple nutsedge (Cyperus rotundus) tubers were planted and treated preemergence with test chemicals formulated in a non-phytotoxic solvent mixture which included a surfactant.
(§2) At the same time, these crop and weed species were also treated with postemergence applications of test chemicals formulated in the same manner. Plants ranged in height from 2 to 18 cm (1- to 4-leaf stage) for postemergence treatments. Plant species in the flood test consisted of rice (Oryza sativa), smallflower flatsedge (Cyperus difformis), duck salad (Heteranthera limosa) and bamyardgrass (Echinochloa crus-galli) grown to the 2-leaf stage for testing. Treated plants and controls were maintained in a greenhouse for twelve to sixteen days, after which all species were compared to controls and visually evaluated. Plant response ratings, summarized in Table B, are based on a scale of 0 to 10 where 0 is no effect and 10 is complete control. A dash (−) response means no test result.

[2] = test system: velvetleaf (Abutilon theophrasti); experiment: Test B pre-/postemergence
Description: as §1, §2

[3] = test system: momingglory (Ipomoea hederacea); experiment: Test B pre-/postemergence
Description: as §1, §2

[4] = test system: pigweed (Amaranthus retroflexus); experiment: Test B pre-/postemergence
Description: as §1, §2

soybean (Glycine max) = experiment: Test B pre-/postemergence
Description: as §1, §2

[5] = test system: sugar beet (Beta vulgaris); experiment: Test B pre-/postemergence
Description: as §1, §2

[6] = test system: bedstraw (Galium aparine); experiment: Test B pre-/postemergence
Description: as §1, §2

[7] = test system: cocklebur (Xanthium strumarium); experiment: Test B pre-/postemergence
Description: as §1, §2

wild oat (Avena fatua) = experiment: Test B pre-/postemergence
Description: as §1, §2

[8] = test system: broadleaf signalgrass (Brachiaria decumbens); experiment: Test B pre-/postemergence
Description: as §1, §2

[9] = test system: crabgrass (Digitaria sanguinalis); experiment: Test B pre-/postemergence
Description: as §1, §2

[10] = test system: giant foxtail (Setaria faberii); experiment: Test B pre-/postemergence
Description: as §1, §2

rape (Brassica napus) = experiment: Test B pre-/postemergence
Description: as §1, §2

[11] = test system: blackgrass (Alopecurus myosuroides); experiment: Test B pre-/postemergence
Description: as §1, §2

[12] = test system: wheat (Triticum aestivum); experiment: Test B pre-/postemergence
Description: as §1, §2

corn (Zea mays) = experiment: Test B pre-/postemergence
Description: as §1, §2

[13] = test system: bamyardgrass (Echinochloa crus-galli); experiment: Test B flood test
Outline: (§3)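 Plants were grown to the 2-leaf stage before treatment with test chemical, then held in a greenhouse for twelve to sixteen days. Injury was visually rated against untreated controls on a 0–10 scale, where 0 is no effect and 10 is complete control.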

[14] = test system: duck salad (Heteranthera limosa); experiment: Test B flood test
Outline: as §3

rice (Oryza sativa) = experiment: Test B flood test
Outline: as §3

[15] = test system: smallflower flatsedge (Cyperus difformis); experiment: Test B flood test
Outline: as §3

[16] = Preemergence, Rate 62 g/ha, scale of 0 to 10
[17] = Rate 62 g/ha, Postemergence (flood test)
[18] = Rate 125 g/ha, Postemergence section (flood test species)
[19] = Rate 250 g/ha, Postemergence (flood test species)

COc1cnc(-n2ccc(C(F)(F)F)n2)nc1C(=O)c1cccc(C(F)(F)F)c1 [Compound 60]
Plant response rating, Nutsedge [1, 16]: 0 | Nutsedge plant response rating ([1]; Rate 62 g/ha, Postemergence): 0 | Nutsedge plant response rating ([1]; Rate 125 g/ha, Postemergence): 0 | Plant response rating, Nutsedge ([1]; Rate 125 g/ha, Preemergence): 0 | Plant response rating, Nutsedge ([1]; Rate 250 g/ha, Postemergence): 0 | Plant response rating, Velvetleaf [2, 16]: 1 | Velvetleaf plant response rating ([2]; Rate 62 g/ha, Postemergence): 2 | Velvetleaf plant response rating ([2]; Rate 125 g/ha, Postemergence): 2 | Plant response rating, Velvetleaf ([2]; Rate 125 g/ha, Preemergence): 1 | Plant response rating, Velvetleaf ([2]; Rate 250 g/ha, Postemergence): 2 | Plant response rating, Velvetleaf ([2]; Rate 250 g/ha, Preemergence): 1 | Plant response rating, Morningglory [3, 16]: 1 | Morningglory plant response rating ([3]; Rate 62 g/ha, Postemergence): 2 | Morningglory plant response rating ([3]; Rate 125 g/ha, Postemergence): 4 | Plant response rating, Morningglory ([3]; Rate 125 g/ha, Preemergence): 2 | Plant response rating, Morningglory ([3]; Rate 250 g/ha, Postemergence): 9 | Plant response rating, Morningglory ([3]; Rate 250 g/ha, Preemergence): 5 | Plant response rating, Redroot pigweed [4, 16]: 6 | Redroot pigweed plant response rating ([4]; Rate 62 g/ha, Postemergence): 5 | Redroot pigweed plant response rating ([4]; Rate 125 g/ha, Postemergence): 7 | Plant response rating, Redroot pigweed ([4]; Rate 125 g/ha, Preemergence): 9 | Plant response rating, Redroot pigweed ([4]; Rate 250 g/ha, Postemergence): 7 | Plant response rating, Redroot pigweed ([4]; Rate 250 g/ha, Preemergence): 10 | Plant response rating, Soybean (soybean (Glycine max); [16]): 0 | Soybean plant response rating (soybean (Glycine max); Rate 62 g/ha, Postemergence): 2 | Soybean plant response rating (soybean (Glycine max); Rate 125 g/ha, Postemergence): 2 | Plant response rating, Soybean (soybean (Glycine max); Rate 125 g/ha, Preemergence): 0 | Plant response rating, Soybean (soybean (Glycine max); Rate 250 g/ha, Postemergence): 2 | Plant response rating, Soybean (soybean (Glycine max); Rate 250 g/ha, Preemergence): 0 | Plant response rating, Sugarbeets [5, 16]: 6 | Sugarbeets plant response rating ([5]; Rate 62 g/ha, Postemergence): 8 | Sugarbeets plant response rating ([5]; Rate 125 g/ha, Postemergence): 8 | Plant response rating, Sugarbeets ([5]; Rate 125 g/ha, Preemergence): 8 | Plant response rating, Sugarbeets ([5]; Rate 250 g/ha, Postemergence): 9 | Plant response rating, Sugarbeets ([5]; Rate 250 g/ha, Preemergence): 9 | Plant response rating, Bedstraw [6, 16]: 0 | Bedstraw plant response rating ([6]; Rate 62 g/ha, Postemergence): 2 | Bedstraw plant response rating ([6]; Rate 125 g/ha, Postemergence): 3 | Plant response rating, Bedstraw ([6]; Rate 125 g/ha, Preemergence): 0 | Plant response rating, Bedstraw ([6]; Rate 250 g/ha, Postemergence): 3 | Plant response rating, Bedstraw ([6]; Rate 250 g/ha, Preemergence): 1 | Plant response rating, Cocklebur [7, 16]: 0 | Cocklebur plant response rating ([7]; Rate 62 g/ha, Postemergence): 3 | Cocklebur plant response rating ([7]; Rate 125 g/ha, Postemergence): 3 | Plant response rating, Cocklebur ([7]; Rate 125 g/ha, Preemergence): 0 | Plant response rating, Cocklebur ([7]; Rate 250 g/ha, Postemergence): 4 | Plant response rating, Cocklebur ([7]; Rate 250 g/ha, Preemergence): 0 | Plant response rating, Wild oats (wild oat (Avena fatua); [16]): 0 | Wild oats plant response rating (wild oat (Avena fatua); Rate 62 g/ha, Postemergence): 2 | Wild oats plant response rating (wild oat (Avena fatua); Rate 125 g/ha, Postemergence): 2 | Plant response rating, Wild oats (wild oat (Avena fatua); Rate 125 g/ha, Preemergence): 0 | Plant response rating, Wild oats (wild oat (Avena fatua); Rate 250 g/ha, Postemergence): 2 | Plant response rating, Wild oats (wild oat (Avena fatua); Rate 250 g/ha, Preemergence): 0 | B. signalgrass plant response rating ([8]; Rate 62 g/ha, Postemergence): 2 | B. signalgrass plant response rating ([8]; Rate 62 g/ha, Preemergence): 2 | B. signalgrass plant response rating ([8]; Rate 125 g/ha, Postemergence): 2 | Plant response rating, B. signalgrass ([8]; Rate 125 g/ha, Preemergence): 3 | Plant response rating, B. signalgrass ([8]; Rate 250 g/ha, Postemergence): 3 | Plant response rating, B. signalgrass ([8]; Rate 250 g/ha, Preemergence): 3 | Plant response rating, Crabgrass [9, 16]: 0 | Crabgrass plant response rating ([9]; Rate 62 g/ha, Postemergence): 2 | Crabgrass plant response rating ([9]; Rate 125 g/ha, Postemergence): 3 | Plant response rating, Crabgrass ([9]; Rate 125 g/ha, Preemergence): 2 | Plant response rating, Crabgrass ([9]; Rate 250 g/ha, Postemergence): 4 | Plant response rating, Crabgrass ([9]; Rate 250 g/ha, Preemergence): 6 | Plant response rating, Giant foxtail [10, 16]: 2 | Giant foxtail plant response rating ([10]; Rate 62 g/ha, Postemergence): 2 | Giant foxtail plant response rating ([10]; Rate 125 g/ha, Postemergence): 2 | Plant response rating, Giant foxtail ([10]; Rate 125 g/ha, Preemergence): 2 | Plant response rating, Giant foxtail ([10]; Rate 250 g/ha, Postemergence): 2 | Plant response rating, Giant foxtail ([10]; Rate 250 g/ha, Preemergence): 5 | Plant response rating, Rape (rape (Brassica napus); [16]): 0 | Rape plant response rating (rape (Brassica napus); Rate 62 g/ha, Postemergence): 3 | Rape plant response rating (rape (Brassica napus); Rate 125 g/ha, Postemergence): 3 | Plant response rating, Rape (rape (Brassica napus); Rate 125 g/ha, Preemergence): 0 | Plant response rating, Rape (rape (Brassica napus); Rate 250 g/ha, Postemergence): 4 | Plant response rating, Rape (rape (Brassica napus); Rate 250 g/ha, Preemergence): 1 | Plant response rating, Blackgrass [11, 16]: 1 | Blackgrass plant response rating ([11]; Rate 62 g/ha, Postemergence): 1 | Blackgrass plant response rating ([11]; Rate 125 g/ha, Postemergence): 1 | Plant response rating, Blackgrass ([11]; Rate 125 g/ha, Preemergence): 1 | Plant response rating, Blackgrass ([11]; Rate 250 g/ha, Postemergence): 2 | Plant response rating, Blackgrass ([11]; Rate 250 g/ha, Preemergence): 2 | Plant response rating, Wheat [12, 16]: 0 | Wheat plant response rating ([12]; Rate 62 g/ha, Postemergence): 2 | Wheat plant response rating ([12]; Rate 125 g/ha, Postemergence): 3 | Plant response rating, Wheat ([12]; Rate 125 g/ha, Preemergence): 0 | Plant response rating, Wheat ([12]; Rate 250 g/ha, Postemergence): 3 | Plant response rating, Wheat ([12]; Rate 250 g/ha, Preemergence): 0 | Plant response rating, Corn (corn (Zea mays); [16]): 0 | Corn plant response rating (corn (Zea mays); Rate 62 g/ha, Postemergence): 2 | Corn plant response rating (corn (Zea mays); Rate 125 g/ha, Postemergence): 2 | Plant response rating, Corn (corn (Zea mays); Rate 125 g/ha, Preemergence): 0 | Plant response rating, Corn (corn (Zea mays); Rate 250 g/ha, Postemergence): 3 | Plant response rating, Corn (corn (Zea mays); Rate 250 g/ha, Preemergence): 0 | Barnyardgrass plant response rating [13, 17]: 1 | Barnyardgrass plant response rating [13, 18]: 1 | Plant response rating, Barnyardgrass [13, 19]: 2 | Ducksalad plant response rating [14, 17]: 1 | Ducksalad plant response rating [14, 18]: 2 | Plant response rating, Ducksalad [14, 19]: 2 | Rice plant response rating (rice (Oryza sativa); [17]): 0 | Rice plant response rating (rice (Oryza sativa); [18]): 0 | Plant response rating, Rice (rice (Oryza sativa); [19]): 1 | S. Flatsedge plant response rating [15, 17]: 4 | S. Flatsedge plant response rating [15, 18]: 5 | Plant response rating, S. Flatsedge [15, 19]: 6
